According to patent US20070298108A1, “Pharmaceutical Formulation” (priority 2004, published 2007):

Key:
[1] = Vial study: influence of humidity in a closed container on binary mixtures of losartan potassium form X; format: physicochemical
Experimental: Storage conditions: Vial study—influence of humidity in a closed container (simulation of packaging)
Testing mixtures are put into vials, exposed to 60% humidity for 18 hours, then closed with rubber stoppers and stored in a thermostatically controlled chamber at temperature of 25° C. (±2° C.) and 60% (±5%) relative humidity.
(§1) Mixtures are tested for up to 5 days in open petri dishes and up to 4 and 9 days in vials, and the following parameters were analysed at intervals of a few days or until the occurrence of significant change: appearance, […], conversion of a polymorph form (detected using powder X-ray diffraction spectroscopy and expressed as the amount of crystalline or amorphous phase different from the starting polymorph).

[2] = Open dish study: constant influence of humidity on binary mixtures of losartan potassium form X; format: physicochemical; conditions: 5 days, 25° C., 60% relative humidity
Experimental: Storage conditions: Open dish study—constant influence of humidity Testing mixtures are put into open petri dishes and stored in a thermostatically controlled chamber at a temperature of 25° C. (±2° C.) and 60% (±5%) relative humidity
as §1

[3] = vial, 4 days, exposed to 60% humidity 18 hours, closed, 25° C., 60% relative humidity
[4] = vial, 9 days, exposed to 60% humidity 18 hours, closed, 25° C., 60% relative humidity

Which results are given for CCCCc1nc(Cl)c(CO)n1Cc1ccc(-c2ccccc2-c2nnn[n-]2)cc1.[K+] [Not stabilized API, potassium salt of losartan]?
Appearance ([1]; Initial state): white powder; Form conversion (amount of crystalline or amorphous phase different from the starting polymorph, XRPD) ([1]; Initial state): 0%; Loss on drying ([1]; Initial state): 0.08%; Appearance [1, 3]: white slightly; Form conversion (amount of crystalline or amorphous phase different from the starting polymorph, XRPD) [1, 3]: 5%; Loss on drying [1, 3]: 0.52%; Appearance [1, 4]: white slightly; Form conversion (amount of crystalline or amorphous phase different from the starting polymorph, XRPD) [1, 4]: 100%; Appearance [2]: white slightly; Form conversion (amount of crystalline or amorphous phase different from the starting polymorph, XRPD) [2]: 10%; Loss on drying [2]: 0.93%
